# Target: PAS domain-containing serine/threonine-protein kinase (Homo sapiens, UniProt Q96RG2)
# Test: Inhibition of human recombinant PASK using Ulight-peptide substrate incubated for 2 hrs by TR-FRET assay
# Chain of PAS domain-containing serine/threonine-protein kinase (Q96RG2 whole entry, the tested form may be a part): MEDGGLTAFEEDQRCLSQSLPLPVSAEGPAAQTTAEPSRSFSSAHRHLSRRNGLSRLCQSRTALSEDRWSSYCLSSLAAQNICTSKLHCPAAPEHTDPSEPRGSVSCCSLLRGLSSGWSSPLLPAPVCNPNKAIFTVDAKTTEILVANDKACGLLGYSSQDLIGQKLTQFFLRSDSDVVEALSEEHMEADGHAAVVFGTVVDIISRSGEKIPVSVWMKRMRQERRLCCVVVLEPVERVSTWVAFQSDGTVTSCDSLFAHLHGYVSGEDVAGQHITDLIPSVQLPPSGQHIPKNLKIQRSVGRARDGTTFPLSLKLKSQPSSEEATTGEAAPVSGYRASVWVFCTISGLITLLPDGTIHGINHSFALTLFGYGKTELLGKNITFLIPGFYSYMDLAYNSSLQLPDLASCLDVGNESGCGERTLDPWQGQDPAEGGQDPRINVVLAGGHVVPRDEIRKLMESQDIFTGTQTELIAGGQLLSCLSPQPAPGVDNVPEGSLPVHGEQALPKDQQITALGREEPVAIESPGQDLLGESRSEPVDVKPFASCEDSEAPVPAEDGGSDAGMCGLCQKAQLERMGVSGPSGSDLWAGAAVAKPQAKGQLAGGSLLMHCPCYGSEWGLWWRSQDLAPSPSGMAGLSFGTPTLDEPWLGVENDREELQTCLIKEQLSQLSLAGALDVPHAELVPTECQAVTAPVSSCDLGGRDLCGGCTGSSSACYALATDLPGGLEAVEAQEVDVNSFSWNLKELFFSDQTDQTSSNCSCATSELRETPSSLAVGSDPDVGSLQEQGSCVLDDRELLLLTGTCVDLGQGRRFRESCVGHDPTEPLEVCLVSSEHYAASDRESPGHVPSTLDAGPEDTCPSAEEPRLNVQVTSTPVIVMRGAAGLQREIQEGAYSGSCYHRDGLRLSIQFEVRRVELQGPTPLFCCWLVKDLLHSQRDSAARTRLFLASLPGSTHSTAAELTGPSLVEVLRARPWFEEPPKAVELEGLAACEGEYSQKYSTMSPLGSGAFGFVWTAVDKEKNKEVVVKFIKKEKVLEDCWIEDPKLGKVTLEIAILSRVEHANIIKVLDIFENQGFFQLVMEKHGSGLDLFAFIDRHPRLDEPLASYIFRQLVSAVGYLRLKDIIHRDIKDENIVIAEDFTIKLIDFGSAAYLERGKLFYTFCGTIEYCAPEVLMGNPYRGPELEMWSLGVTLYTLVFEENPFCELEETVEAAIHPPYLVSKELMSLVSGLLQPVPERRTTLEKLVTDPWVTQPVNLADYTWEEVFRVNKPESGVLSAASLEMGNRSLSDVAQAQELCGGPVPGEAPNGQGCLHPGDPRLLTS
row,IC50,SMILES
1,≤ 10 µM,O=c1cc(-c2ccc3c(c2)OCCO3)[nH]c2c(-c3cccnc3)c(O)nn12
2,≤ 10 µM,COc1cc2[nH]nnc2cc1-c1cc(=O)n2nc(O)c(-c3ccccn3)c2[nH]1
3,≤ 10 µM,O=c1cc(-c2ccccc2)[nH]c2c(-c3cccnc3)c(O)nn12
4,≤ 10 µM,Nc1nn2c(=O)cc(-c3ccc4occc4c3)[nH]c2c1-c1ccccn1
5,≤ 10 µM,CCC(=O)Nc1nn2c(=O)cc(-c3ccc4c(c3)OCO4)[nH]c2c1-c1ccccn1
6,≤ 10 µM,Cc1nn2c(=O)cc(-c3ccc(O)cc3)[nH]c2c1-c1ccccc1
7,≤ 10 µM,O=c1cc(-c2ccc3c(c2)OCCO3)[nH]c2c(-c3ccc(Br)cc3)cnn12
8,≤ 10 µM,COc1c(-c2cc(=O)n3nc(O)c(-c4ccccn4)c3[nH]2)ccc2[nH]nnc12
9,≤ 10 µM,O=c1cc(-c2ccc3[nH]nnc3c2)[nH]c2c(-c3ccccc3)c(O)nn12
10,≤ 10 µM,COc1ccc(-c2c(C)nn3c(=O)cc(-c4ccc5c(c4)OCCO5)[nH]c23)cc1
11,≤ 10 µM,O=c1cc(-c2ccc3c(c2)OCCO3)[nH]c2c(-c3ccc(F)cc3)cnn12
12,≤ 10 µM,Cc1nn2c(=O)cc(-c3ccc4[nH]nnc4c3)[nH]c2c1-c1ccccn1
13,≤ 10 µM,CCc1nn2c(=O)cc(-c3ccc(Cl)cc3)[nH]c2c1-c1ccccn1
14,≤ 10 µM,Nc1nn2c(=O)cc(-c3ccc(F)cc3F)[nH]c2c1-c1ccccn1
15,≤ 10 µM,COc1nn2c(=O)cc(-c3ccc4c(c3)OCO4)[nH]c2c1-c1ccccn1
16,≤ 10 µM,Cc1n[nH]c2ccc(-c3cc(=O)n4nc(N)c(-c5ccccn5)c4[nH]3)cc12
17,≤ 10 µM,O=c1cc(-c2ccc3[nH]nnc3c2)[nH]c2c(Cc3ccccc3)c(O)nn12
18,≤ 10 µM,O=C(O)c1cnn2c(=O)cc(-c3ccc4c(c3)OCCO4)[nH]c12
19,≤ 10 µM,Cc1nn2c(=O)cc(-c3ccc4c(c3OC(C)C)OCO4)[nH]c2c1-c1ccccn1
20,≤ 10 µM,CCCc1cnn2c(=O)cc(-c3ccc4c(c3)OCO4)[nH]c12
21,≤ 10 µM,Cc1c(-c2cc(=O)n3nc(O)c(-c4ccccn4)c3[nH]2)ccc2c1OCO2
22,≤ 10 µM,COc1ccc(-c2c(C)nn3c(=O)cc(-c4ccc5ncccc5c4)[nH]c23)cc1

row,IC50,SMILES
1,≤ 10 µM,CCc1nn2c(=O)cc(-c3ccc4c(cnn4C)c3)[nH]c2c1-c1ccccn1
2,≤ 10 µM,CCc1nn2c(=O)cc(-c3ccc4[nH]nnc4c3)[nH]c2c1-c1ccccc1
3,≤ 10 µM,COc1ccc(-c2cnn3c(=O)cc(-c4ccc5c(c4)OCCO5)[nH]c23)cc1
4,≤ 10 µM,Cn1ncc2cc(-c3cc(=O)n4ncc(-c5ccccn5)c4[nH]3)ccc21
5,≤ 10 µM,COc1c(-c2cc(=O)n3nc(C)c(-c4ccccn4)c3[nH]2)ccc2[nH]nnc12
6,≤ 10 µM,CCn1ncc2cc(-c3cc(=O)n4nc(NC(C)=O)c(-c5ccccn5)c4[nH]3)ccc21
7,≤ 10 µM,Cc1c(-c2cc(=O)n3nc(N)c(-c4ccccn4)c3[nH]2)ccc2[nH]nnc12
8,≤ 10 µM,O=c1cc(-c2ccc3c(c2)OCCO3)[nH]c2c(-c3ccc(N4CCOCC4)nc3)cnn12
9,≤ 10 µM,O=c1cc(-c2ccc3[nH]nnc3c2)[nH]c2c(-c3ccccn3)cnn12
10,≤ 10 µM,Nc1nn2c(=O)cc(-c3cc4ccccc4o3)[nH]c2c1-c1ccccn1
11,≤ 10 µM,CCC(=O)Nc1nn2c(=O)cc(-c3ccc4nn[nH]c4c3)[nH]c2c1-c1ccccn1
12,≤ 10 µM,Cc1c(-c2cc(=O)n3nc(O)c(-c4ccccn4)c3[nH]2)ccc2[nH]nnc12
13,≤ 10 µM,Cc1nn2c(=O)cc(-c3ccc4[nH]nnc4c3)[nH]c2c1Cc1ccccc1
14,≤ 10 µM,Cc1cc2[nH]nnc2cc1-c1cc(=O)n2ncc(-c3ccccn3)c2[nH]1
15,≤ 10 µM,O=C(c1cnn2c(=O)cc(-c3ccc4c(c3)OCCO4)[nH]c12)N1CCCC1
16,≤ 10 µM,Cc1nn2c(=O)cc(-c3ccc4[nH]nnc4c3)[nH]c2c1-c1ccc(Cl)cc1
17,≤ 10 µM,Cc1nn2c(=O)cc(-c3ccc4[nH]nnc4c3)[nH]c2c1-c1ccccc1
18,≤ 10 µM,Cc1cc2cc(-c3cc(=O)n4ncc(-c5ccccn5)c4[nH]3)ccc2o1
19,≤ 10 µM,O=c1cc(-c2ccc(Cl)cc2)[nH]c2c(Cc3ccccc3)cnn12
20,≤ 10 µM,Cc1ccc(-c2cc(=O)n3ncc(-c4ccccn4)c3[nH]2)cc1
21,≤ 10 µM,Nc1nn2c(=O)cc(-c3ccc(Cl)c(Cl)c3)[nH]c2c1-c1ccccn1
22,≤ 10 µM,N#Cc1c(O)nn2c(=O)cc(-c3ccc(Cl)cc3)[nH]c12

row,IC50,SMILES
1,≤ 10 µM,Cc1cc2[nH]nnc2cc1-c1cc(=O)n2nc(N)c(-c3ccccn3)c2[nH]1
2,≤ 10 µM,Cc1c(-c2cc(=O)n3nc(N)c(-c4ccccn4)c3[nH]2)ccc2c1OCO2
3,≤ 10 µM,O=c1cc(-c2ccc3c(c2)OCO3)[nH]c2c(Cc3ccccn3)cnn12
4,≤ 10 µM,Nc1nn2c(=O)cc(-c3ccc4[nH]nnc4c3)[nH]c2c1Cc1ccccc1
5,≤ 10 µM,CC(C)Oc1c(-c2cc(=O)n3ncc(-c4ccccn4)c3[nH]2)ccc2c1OCO2
6,≤ 10 µM,O=c1cc(-c2ccc(Cl)cc2Cl)[nH]c2c(-c3ccccn3)cnn12
7,≤ 10 µM,Cc1cc2[nH]nnc2cc1-c1cc(=O)n2nc(O)c(-c3ccccn3)c2[nH]1
8,≤ 10 µM,COc1nn2c(=O)cc(-c3ccc(Cl)cc3)[nH]c2c1C#N
9,≤ 10 µM,O=c1cc(-c2ccc(C(F)(F)F)cc2)[nH]c2c(-c3ccccn3)cnn12
10,≤ 10 µM,O=c1cc(-c2cccc(F)c2)[nH]c2c(-c3ccccn3)cnn12
11,≤ 10 µM,O=c1cc(-c2ccc(F)cc2F)[nH]c2c(-c3ccccn3)cnn12
12,≤ 10 µM,Cc1nn2c(=O)cc(-c3ccc4ncccc4c3)[nH]c2c1-c1ccc(F)cc1
13,≤ 10 µM,Cc1cc2cc(-c3cc(=O)n4nc(N)c(-c5ccccn5)c4[nH]3)ccc2o1
14,≤ 10 µM,Cn1ncc2cc(-c3cc(=O)n4nc(N)c(-c5ccccn5)c4[nH]3)ccc21
15,≤ 10 µM,Nc1nn2c(c1-c1ccccn1)CC(c1ccc3c(c1)OC(F)(F)O3)=CC2=O
16,≤ 10 µM,O=c1cc(-c2ccccc2)[nH]c2c(-c3ccc(O)nc3)cnn12
17,≤ 10 µM,Cc1nn2c(=O)cc(-c3ccc4c(c3C)OCO4)[nH]c2c1-c1ccccn1
18,≤ 10 µM,COc1c(-c2cc(=O)n3ncc(-c4ccccn4)c3[nH]2)ccc2c1OCO2
19,≤ 10 µM,Cn1nnc2cc(-c3cc(=O)n4nc(N)c(-c5ccccn5)c4[nH]3)ccc21
20,≤ 10 µM,COc1c(-c2cc(=O)n3nc(N)c(-c4ccccn4)c3[nH]2)ccc2[nH]nnc12
21,≤ 10 µM,COc1cc(Cl)ccc1-c1cc(=O)n2ncc(-c3ccccn3)c2[nH]1
22,≤ 10 µM,O=c1cc(-c2ccc3c(c2)OCCO3)[nH]c2c(-c3cccc(Cl)c3)cnn12

row,IC50,SMILES
1,≤ 10 µM,CCCNC(=O)c1c(N)nn2c(=O)cc(-c3ccc4c(c3)OCO4)[nH]c12
2,≤ 10 µM,Cc1nn2c(=O)cc(-c3ccc4[nH]nnc4c3C)[nH]c2c1-c1ccccn1
3,≤ 10 µM,CC(=O)Nc1nn2c(=O)cc(-c3ccc4[nH]nnc4c3)[nH]c2c1-c1ccccn1
4,≤ 10 µM,CS(=O)(=O)c1ccc(-c2cc(=O)n3ncc(-c4ccccn4)c3[nH]2)cc1
5,≤ 10 µM,CCc1nn2c(=O)cc(-c3ccc4[nH]ncc4c3)[nH]c2c1-c1ccccn1
6,≤ 10 µM,O=c1cc(-c2ccc3[nH]nnc3c2)[nH]c2c(Cc3ccccc3)cnn12
7,≤ 10 µM,CCCNC(=O)c1c(O)nn2c(=O)cc(-c3ccc4[nH]nnc4c3)[nH]c12
8,≤ 10 µM,Nc1nn2c(=O)cc(-c3cccc(F)c3)[nH]c2c1-c1ccccn1
9,≤ 10 µM,Nc1nn2c(=O)cc(-c3ccc(C(F)(F)F)cc3)[nH]c2c1-c1ccccn1
10,≤ 10 µM,COc1cc(OC)cc(-c2cc(=O)n3ncc(-c4ccccn4)c3[nH]2)c1
11,≤ 10 µM,CCCNC(=O)c1c(N)nn2c(=O)cc(-c3ccc4c(c3)OCCO4)[nH]c12
12,≤ 10 µM,Cc1coc2ccc(-c3cc(=O)n4nc(N)c(-c5ccccn5)c4[nH]3)cc12
13,≤ 10 µM,O=c1cc(-c2ccc(-c3nnco3)cc2)[nH]c2c(-c3ccccn3)cnn12
14,≤ 10 µM,Cc1c(-c2cc(=O)n3ncc(-c4ccccn4)c3[nH]2)ccc2c1OCO2
15,≤ 10 µM,Cc1nn2c(=O)cc(-c3ccc4[nH]ccc4c3)[nH]c2c1-c1ccccc1
16,≤ 10 µM,CC(=O)Nc1nn2c(=O)cc(-c3ccc4[nH]ncc4c3)[nH]c2c1-c1ccccn1
17,≤ 10 µM,COc1ccc(-c2cnn3c(=O)cc(-c4ccccc4)[nH]c23)cn1
18,≥ 10 µM,O=c1cc(-c2ccccc2)[nH]c2c(-c3ccc(N4CCCCC4)nc3)cnn12
19,≤ 10 µM,Cc1n[nH]c2ccc(-c3cc(=O)n4ncc(-c5ccccn5)c4[nH]3)cc12
20,≤ 10 µM,CC(C)C(=O)Nc1nn2c(=O)cc(-c3ccc4c(c3)OCO4)[nH]c2c1-c1ccccn1
21,≤ 10 µM,Cn1nnc2cc(-c3cc(=O)n4ncc(-c5ccccn5)c4[nH]3)ccc21
22,≤ 10 µM,O=c1cc(-c2ccc(Cl)cc2F)[nH]c2c(-c3ccccn3)cnn12

row,SMILES,IC50
1,CNC(=O)Oc1ccc(-c2cc(=O)n3nc(C)c(-c4ccccn4)c3[nH]2)cc1,≤ 10 µM
2,CNC(=O)Oc1ccc(-c2cc(=O)n3ncc(-c4ccccn4)c3[nH]2)cc1,≤ 10 µM

# Target: Casein kinase II subunit alpha' (Homo sapiens, UniProt P19784)
# Test: Inhibition of GST-tagged full-length purified human CK2a2 using RRRDDDSDDD substrate incubated for 120 mins in presence of [33P]ATP by scintillation counting based biochemical assay
# Chain of Casein kinase II subunit alpha' (P19784 whole entry): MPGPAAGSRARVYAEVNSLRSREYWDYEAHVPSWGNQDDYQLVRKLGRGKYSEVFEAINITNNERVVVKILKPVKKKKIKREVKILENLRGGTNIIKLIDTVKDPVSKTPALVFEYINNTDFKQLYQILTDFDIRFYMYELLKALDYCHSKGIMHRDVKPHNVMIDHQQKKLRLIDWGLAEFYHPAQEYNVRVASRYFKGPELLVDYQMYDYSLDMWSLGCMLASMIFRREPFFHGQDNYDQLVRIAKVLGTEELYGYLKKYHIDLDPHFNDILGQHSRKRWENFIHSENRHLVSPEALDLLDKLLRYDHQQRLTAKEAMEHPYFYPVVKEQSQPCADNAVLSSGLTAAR
row,IC50,SMILES
1,≤ 10 µM,Cc1nn2c(=O)cc(-c3ccc4c(c3)OCCO4)[nH]c2c1-c1ccccn1
2,≤ 10 µM,O=c1cc(-c2ccc3c(c2)OCCO3)[nH]c2c(-c3cccnc3)cnn12
3,≤ 10 µM,COc1ccc(-c2cc(=O)n3ncc(-c4ccccn4)c3[nH]2)cc1
4,≤ 10 µM,O=c1cc(-c2ccc3c(c2)OCCO3)[nH]c2c(-c3ccccc3)cnn12
5,≤ 10 µM,O=c1cc(-c2ccc3c(c2)OCO3)[nH]c2c(-c3ccccn3)cnn12
6,≤ 10 µM,COc1ccc(-c2cc(=O)n3ncc(-c4ccc(F)cc4)c3[nH]2)cc1
7,≥ 10 µM,Cc1nn2c(=O)cc(-c3ccc4cc[nH]c4c3)[nH]c2c1Cc1ccccc1
8,≤ 10 µM,Cc1nn2c(=O)cc(-c3ccc4c(c3)CCO4)[nH]c2c1-c1ccccc1
9,≤ 10 µM,Cc1nn2c(=O)cc(-c3ccc4c(c3)OCCO4)[nH]c2c1-c1cccnc1
10,≤ 10 µM,Cc1nn2c(=O)cc(-c3ccc4c(c3)OCO4)[nH]c2c1-c1ccccc1
11,≤ 10 µM,O=c1cc(-c2ccc3c(c2)OCCO3)[nH]c2c(-c3ccccn3)cnn12
12,≤ 10 µM,Cc1nn2c(=O)cc(-c3ccc4c(c3)OCO4)[nH]c2c1-c1ccccn1
